These results are taken from patent publication US12122803B2, “Crystalline forms of a neuroactive steroid” (priority 2021, dated 2024).

Type in all cases: physicochemical
One data set can be described thus: TGA analysis. Particulars: up to 185° C., heating rate 10° C./min. The protocol: (§1) TGA data were collected using a TA Q500 TGA from TA Instruments, and DSC was conducted using a TA Q2000 DSC from TA Instruments. The TGA was calibrated with a nickel reference standard and the DSC was calibrated with an indium reference standard.
Data set [1] in a line: Competitive slurry experiments of Form S1 and Form S4. Particulars: IPA, approximately equal amounts of Form S1 and Form S4. The protocol: To verify the transition temperature between Form S1 and Form S4 of Compound (1) calculated from the DSC data, competitive slurry experiments of Form S1 and Form S4 were performed.
In each experiment, slurries were generated using approximately equal amounts of Form S1 and Form S4. The forms were suspended in 0.3 mL of solvent in a 1.5 mL glass vial. […] The remaining solids were isolated via centrifugation (10000 rpm, 3 min) and analyzed using the XPRD analysis method described above.

Data set [2] can be described thus: Dynamic vapor sorption (DVS) analysis. Particulars: for hygroscopicity by DVS / mass uptake by DVS / mass uptake by DVS expressed as equivalents of water: 25° C.; for hygroscopicity by DVS: up to 90% RH; for change of the XRPD pattern of the sample following the DVS analysis: after two sorption/desorption cycles at 25° C.; for mass uptake by DVS / mass uptake by DVS expressed as equivalents of water: at 90% RH. The protocol: Approximately 10-20 mg of sample was placed into a mesh vapor sorption balance pan and loaded into a DVS Intrinsic/Advantage dynamic vapor sorption balance by Surface Measurement Systems. The sample was subjected to a ramping profile from 40-90% relative humidity (RH) at 10% increments, maintaining the sample at each step until a stable weight had been achieved (dm/dt 0.004%, minimum step length 30 minutes, maximum step length 500 minutes) at 25° C. After completion of the sorption cycle, the sample was dried using the same procedure to 0% RH and then a second sorption cycle back to 40% RH. Two cycles were performed. The weight change during the sorption/desorption cycles were plotted, allowing for the hygroscopic nature of the sample to be determined. XRPD analysis was then carried out on any solid retained. The microbalance was calibrated monthly using a certified calibration weight and the relative humidity at 25° C. was calibrated against deliquescence point of LiCl, MgCl and NaCl. Data were not corrected for the initial water content of the sample, and data were shown according to the dry mass of the sample at 0% RH.

Data set [3] can be described thus: DSC analysis (form conversion under heating). Particulars: TGA/DSC heating. The protocol:
as §1
(In general: DSC measures the heat that a sample takes up or gives off during a temperature scan.)

As to `COC[C@@]1(O)CC[C@H]2[C@@H](CC[C@@H]3[C@@H]2CC[C@]2(C)[C@@H](C(=O)Cn4nnc(C)n4)CC[C@@H]32)C1` [Form S4], the “weight loss on the TGA curve” value in the data set “TGA analysis” is recorded as 0.1%. The “Results: solid form remaining after competitive slurry (XRPD)” value (“Results: solid form remaining” below) in data set [1] (60 ° C., time point 1 hr) is given as “converted to Form S1”. Besides, in data set [1] (70 ° C., time point 1 hr), the “Results: solid form remaining” value was “converted to Form S1”. In data set [2], the “hygroscopicity by DVS” value is on record as “non-hygroscopic”, the “change of the XRPD pattern of the sample following the DVS analysis” value is “No change”, the “mass uptake by DVS” value is given as “ca. 0.12 wt. %” and the “mass uptake by DVS expressed as equivalents of water” value amounted to 0.02 eq. water.
As for `COC[C@@]1(O)CC[C@H]2[C@@H](CC[C@@H]3[C@@H]2CC[C@]2(C)[C@@H](C(=O)Cn4nnc(C)n4)CC[C@@H]32)C1` [Form S1], the “form conversion under heating conditions (thermal analyses)” value in data set [3] is “converts to Form S4”. Moreover, in the data set “TGA analysis”, the “weight loss on the TGA curve” value is listed as 0.1%. Moreover, the “Results: solid form remaining” value in data set [1] (80 ° C., time point not given) was “converted to Form S4”. Besides, in data set [2], the “hygroscopicity by DVS” value is given as “substantially non-hygroscopic”, the “change of the XRPD pattern of the sample following the DVS analysis” value is reported as “No change”, the “mass uptake by DVS” value is listed as “ca. 0.6 wt. %” and the “mass uptake by DVS expressed as equivalents of water” value was 0.14 eq. water.
Turning to `COC[C@@]1(O)CC[C@H]2[C@@H](CC[C@@H]3[C@@H]2CC[C@]2(C)[C@@H](C(=O)Cn4nnc(C)n4)CC[C@@H]32)C1` [Form S1 and Form S4], the “Results: solid form remaining” value is given as “Form S1” in data set [1] (60 ° C., time point 1 hr); “Form S1” in data set [1] (70 ° C., time point 1 hr); “Form S4” in data set [1] (80 ° C., time point not given).
